Assay: Evaluation of curability under moist environment (distilled water added, Vicat needle)
Type: physicochemical
Conditions: conclusion in words from Table 1
Method: The curability of each of the root canal treatment materials according to the examples and the comparative examples was evaluated through the following method. First, a cylindrical mold having an inner diameter of 5 mm and a height of 1 mm was filled with each of the root canal treatment materials which was then subjected to light irradiation with a light irradiator (“G-Light Prima II Plus” manufactured by GC) for 40 seconds to produce a test piece. […] A needle mark was visually checked and evaluated according to the following criteria.
The curability of each of the root canal treatment materials according to the examples and the comparative examples was evaluated in a moist environment through the following method. First, 15 μL of distilled water was added to 0.15 g of each of the root canal treatment materials which was then subjected to light irradiation with the light irradiator (“G-Light Prima II Plus” manufactured by GC) for 20 seconds to produce a test piece. The curability of each of the obtained test pieces was evaluated in the same manner as in <Evaluation of Curability> described above.

For C=CC(=O)NCCCOCC(COCCCNC(=O)C=C)(COCCCNC(=O)C=C)NC(=O)C=C [compound (I)], which “curability in a moist environment” value is on record?
Its value is “particularly excellent curability in a moist environment”.

Source: patent publication US10736822B2, “Root canal treatment material and root canal treatment kit” (FUJIFILM Corporation, priority 2016, dated 2020)
